The target in this assay is T1, histamine H4 receptor (Homo sapiens, UniProt Q9H3N8).
T1 construct: expressed in transfected cells; host or cells: HEK293SFM cells (membrane preparation)
T1 sequence (Q9H3N8 whole entry): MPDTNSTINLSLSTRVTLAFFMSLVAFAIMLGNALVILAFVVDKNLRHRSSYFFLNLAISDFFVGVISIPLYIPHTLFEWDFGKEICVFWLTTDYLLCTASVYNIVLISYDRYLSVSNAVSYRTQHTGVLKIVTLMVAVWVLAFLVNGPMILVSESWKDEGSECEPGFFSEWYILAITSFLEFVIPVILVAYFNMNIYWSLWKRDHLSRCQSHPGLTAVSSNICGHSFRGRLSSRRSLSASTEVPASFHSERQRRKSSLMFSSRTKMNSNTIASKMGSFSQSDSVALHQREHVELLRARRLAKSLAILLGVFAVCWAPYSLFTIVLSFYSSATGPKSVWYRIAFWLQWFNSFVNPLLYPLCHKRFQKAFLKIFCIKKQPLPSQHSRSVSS
In words: H4 Membrane Binding Assay (3H-Histamine displacement). To be noted: membranes of recombinant HEK293SFM cells, 10 nM 3H-Histamine, 1.5 hr at room temperature. The method in brief:
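Radioligand is [3H]-histamine; 1000× unlabeled ligand sets nonspecific binding. Receptor source: membrane pellets from HEK293SFM cells carrying human H4 or other histamine subtypes (human H1–H3, mouse H4), in 50 mM Tris-HCl pH 7.5. Filtration through PEI-treated GF/B filters, then scintillation counting.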
What is called IC50 is the concentration needed to halve the response being measured. Consider `CN1CCN(c2cc(-c3ccc4c(c3)CN(C(=O)CC(C#N)c3ccccc3)CC4)nc(N)n2)CC1` (centres unmarked) [Example 124, 4-[7-[2-Amino-6-(4-methylpiperazin-1-yl)pyrimidin-4-yl]-3,4-dihydroisoquinolin-2(1H)-yl]-4-oxo-2-phenylbutanenitrile], for which the 50% inhibitory concentration (IC50) is 36 nM.
Under `CN1CCN(c2cc(-c3ccc4c(c3)CN(c3ccc(C#N)c(F)c3)CC4)nc(N)n2)CC1` [Example 15, 4-{7-[2-Amino-6-(4-methylpiperazin-1-yl)pyrimidin-4-yl]-3,4-dihydroisoquinolin-2(1H)-yl}-2-fluorobenzonitrile] stands 39 nM; under `CC(C)Oc1ccc(C[C@H](NC(=O)c2ccc3c(N4CCN(C)CC4)nc(N)nc3c2)C(=O)N(C)C)cc1` [Example 136, (S)-2-amino-N-(1-(dimethylamino)-3-(4-isopropoxyphenyl)-1-oxopropan-2-yl)-4-(4-methylpiperazin-1-yl)quinazoline-7-carboxamide], 59 nM.
With `CN1CCN(c2cc(-c3ccc4c(c3)CN(c3ccc(C#N)cc3)CC4)nc(N)n2)CC1` [Example 14, 4-{7-[2-Amino-6-(4-methylpiperazin-1-yl)pyrimidin-4-yl]-3,4-dihydroisoquinolin-2(1H)-yl}benzonitrile], the IC50 came out at 23.1 nM.
With `Cc1ccc(C#N)c(Oc2cccc(C(C)NC(=O)c3ccc4c(N5CCN(C)CC5)nc(N)nc4c3)c2)n1` (centres unmarked) [Example 198, 2-Amino-N-(1-{3-[(3-cyano-6-methylpyridin-2-yl)oxy]phenyl}ethyl)-4-(4-methylpiperazin-1-yl)quinazoline-7-carboxamide], the half-inhibitory concentration (IC50) is 34 nM.
Under `CC(Oc1cccc(CNC(=O)c2ccc3c(N4CCN(C)CC4)nc(N)nc3c2)c1)c1cccc(C(F)(F)F)c1` (centres unmarked) [Example 196, 2-Amino-4-(4-methylpiperazin-1-yl)-N-(3-{1-[3-(trifluoromethyl)phenyl]ethoxy}benzyl)quinazoline-7-carboxamide] stands 4.4 nM.
As for `CN1CCN(c2nc(N)nc3cc(C(=O)N[C@@H](Cc4ccc(-c5cccc(C#N)c5)cc4)C(=O)N(C)C)ccc23)CC1` [Example 154, 2-Amino-N-[(1S)-1-[(3′-cyanobiphenyl-4-yl)methyl]-2-(dimethylamino)-2-oxoethyl]-4-(4-methylpiperazin-1-yl)quinazoline-7-carboxamide], the half-inhibitory concentration (IC50) was 14 nM.
Under `COCC1(NC(=O)N2CCc3ccc(-c4cc(N5CCN(C)CC5)nc(N)n4)cc3C2)CCCC1` [Example 94, 7-[2-Amino-6-(4-methylpiperazin-1-yl)pyrimidin-4-yl]-N-[1-(methoxymethyl)cyclopentyl]-3,4-dihydroisoquinoline-2(1H)-carboxamide] stands 149 nM; under `CN1CCN(c2nc(N)nc3cc(C(=O)N[C@@H](Cc4ccc(-c5ccc(F)c(C(F)(F)F)c5)cc4)C(=O)N(C)C)ccc23)CC1` [Example 159, 2-Amino-N-((1S)-2-(dimethylamino)-1-{[4′-fluoro-3′-(trifluoromethyl)biphenyl-4-yl]methyl}-2-oxoethyl)-4-(4-methylpiperazin-1-yl)quinazoline-7-carboxamide], 26 nM; under `CN1CCN(c2cc(-c3ccc4c(c3)CN(C(=O)Cc3ccc(F)cc3)CC4)nc(N)n2)CC1` [Example 65, 4-{2-[(4-Fluorophenyl)acetyl]-1,2,3,4-tetrahydroisoquinolin-7-yl}-6-(4-methylpiperazin-1-yl)pyrimidin-2-amine], 25 nM.
Under `CN1CCN(c2cc(-c3ccc4c(c3)CN(C(=O)N3CCCC3)CC4)nc(N)n2)CC1` [Example 9, 4-(4-Methylpiperazin-1-yl)-6-[2-(pyrrolidin-1-ylcarbonyl)-1,2,3,4-tetrahydroisoquinolin-7-yl]pyrimidin-2-amine] stands 301 nM; under `CN1CCN(c2nc(N)nc3cc(C(=O)Nc4cccc(Cl)c4)ccc23)CC1` [Example 27, 2-Amino-N-(3-chlorophenyl)-4-(4-methylpiperazin-1-yl)quinazoline-7-carboxamide], 896 nM.
Under `CN1CCN(c2cc(-c3ccc4c(c3)CN(C(=O)Nc3nc5ccccc5s3)CC4)nc(N)n2)CC1` [Example 90, 7-[2-Amino-6-(4-methylpiperazin-1-yl)pyrimidin-4-yl]-N-1,3-benzothiazol-2-yl-3,4-dihydroisoquinoline-2(1H)-carboxamide] stands 143 nM; under `COc1ccccc1-c1ccc(C[C@H](NC(=O)c2ccc3c(N4CCN(C)CC4)nc(N)nc3c2)C(=O)N(C)C)cc1` [Example 152, 2-Amino-N-{(1S)-2-(dimethylamino)-1-[(2′-methoxybiphenyl-4-yl)methyl]-2-oxoethyl}-4-(4-methylpiperazin-1-yl)quinazoline-7-carboxamide], 10 nM.
As for `CN1CCN(c2cc(-c3ccc4c(c3)CN(C(=O)CC3CCOCC3)CC4)nc(N)n2)CC1` [Example 110, 4-(4-Methylpiperazin-1-yl)-6-[2-(tetrahydro-2H-pyran-4-ylacetyl)-1,2,3,4-tetrahydroisoquinolin-7-yl]pyrimidin-2-amine], the IC50 amounted to 86 nM.
Under `Cc1ccc(C#N)c(Oc2cccc(CC(NC(=O)c3ccc4c(N5CCN(C)CC5)nc(N)nc4c3)C(=O)N(C)C)c2)n1` (centres unmarked) [Example 173, 2-Amino-N-[1-{3-[(3-cyano-6-methylpyridin-2-yl)oxy]benzyl}-2-(dimethylamino)-2-oxoethyl]-4-(4-methylpiperazin-1-yl)quinazoline-7-carboxamide] stands 67 nM; under `CN1CCN(c2nc(N)nc3cc(C(=O)N[C@@H](Cc4ccc(-c5nc(C(F)(F)F)ccc5C#N)cc4)C(=O)N(C)C)ccc23)CC1` [Example 157, 2-Amino-N-[(1S)-1-{4-[3-cyano-6-(trifluoromethyl)pyridin-2-yl]benzyl}-2-(dimethylamino)-2-oxoethyl]-4-(4-methylpiperazin-1-yl)quinazoline-7-carboxamide], 22 nM.
Then `CN1CCN(c2cc(-c3ccc4c(c3)CN(C(=O)C(F)(F)c3ccccc3)CC4)nc(N)n2)CC1` [Example 61, 4-{2-[Difluoro(phenyl)acetyl]-1,2,3,4-tetrahydroisoquinolin-7-yl}-6-(4-methylpiperazin-1-yl)pyrimidin-2-amine], with 70 nM.
Then `COc1cccc(Oc2cccc(CNC(=O)c3ccc4c(N5CCN(C)CC5)nc(N)nc4c3)c2)c1C#N` [Example 190, 2-Amino-N-[3-(2-cyano-3-methoxyphenoxy)benzyl]-4-(4-methylpiperazin-1-yl)quinazoline-7-carboxamide], with 11 nM; and `CN1CCN(c2cc(-c3ccc4c(c3)CN(C(=O)OC3CCN(S(=O)(=O)C5CCCC5)CC3)CC4)nc(N)n2)CC1` [Example 89, 1-(Cyclopentylsulfonyl)piperidin-4-yl 7-[2-amino-6-(4-methylpiperazin-1-yl)pyrimidin-4-yl]-3,4-dihydroisoquinoline-2(1H)-carboxylate], with 77 nM.
Turning to `CC(Cc1ccc(Oc2ccccc2)cc1)NC(=O)c1ccc2c(N3CCN(C)CC3)nc(N)nc2c1` (centres unmarked) [Example 142, 2-Amino-N-[1-methyl-2-(4-phenoxyphenyl)ethyl]-4-(4-methylpiperazin-1-yl)quinazoline-7-carboxamide], the IC50 was 34 nM.
Then `CN1CCN(c2cc(-c3ccc4c(c3)CN(C(=O)c3cccc(Cl)c3)CC4)nc(N)n2)CC1` [Example 39, 4-[2-(3-Chlorobenzoyl)-1,2,3,4-tetrahydroisoquinolin-7-yl]-6-(4-methylpiperazin-1-yl)pyrimidin-2-amine], with 186 nM; and `CN1CCN(c2nc(N)nc3cc(C(=O)NCCCc4ccccc4)ccc23)CC1` [Example 38, 2-Amino-4-(4-methylpiperazin-1-yl)-N-(3-phenylpropyl)quinazoline-7-carboxamide], with 106 nM; and `COc1ccc(NC(=O)N2CCc3ccc(-c4cc(N5CCN(C)CC5)nc(N)n4)cc3C2)cn1` [Example 46, 7-[2-Amino-6-(4-methylpiperazin-1-yl)pyrimidin-4-yl]-N-(6-methoxypyridin-3-yl)-3,4-dihydroisoquinoline-2(1H)-carboxamide], with 70 nM.
For `CO[C@H]1Cc2ccccc2[C@H]1NC(=O)N1CCc2ccc(-c3cc(N4CCN(C)CC4)nc(N)n3)cc2C1` [Example 58, 7-[2-Amino-6-(4-methylpiperazin-1-yl)pyrimidin-4-yl]-N-[(1R,2S)-2-methoxy-2,3-dihydro-1H-inden-1-yl]-3,4-dihydroisoquinoline-2(1H)-carboxamide], the IC50 was 165 nM.
Under `COC(=O)c1ccc(COc2cccc3c2CCN(C(=O)c2ccc4c(N5CCN(C)CC5)nc(N)nc4c2)C3)cc1` [Example 211, Methyl 4-((2-(2-amino-4-(4-methylpiperazin-1-yl)quinazoline-7-carbonyl)-1,2,3,4-tetrahydroisoquinolin-5-yloxy)methyl)benzoate] stands 63 nM.
Under `CN1CCN(c2cc(-c3ccc4c(c3)CN(C(=O)CC3(C#N)CCCC3)CC4)nc(N)n2)CC1` [Example 122, 1-{2-[7-[2-Amino-6-(4-methylpiperazin-1-yl)pyrimidin-4-yl]-3,4-dihydroisoquinolin-2(1H)-yl]-2-oxoethyl}cyclopentanecarbonitrile] stands 22 nM; under `CN1CCN(c2cc(-c3ccc4c(c3)CN(C(=O)Nc3nc(-c5ccc(Cl)cc5)cs3)CC4)nc(N)n2)CC1` [Example 48, 7-[2-Amino-6-(4-methylpiperazin-1-yl)pyrimidin-4-yl]-N-[4-(4-chlorophenyl)-1,3-thiazol-2-yl]-3,4-dihydroisoquinoline-2(1H)-carboxamide], 99 nM.
Then `CC(C)Oc1ccc(NC(=O)N2CCc3ccc(-c4cc(N5CCN(C)CC5)nc(N)n4)cc3C2)cc1` [Example 92, 7-[2-Amino-6-(4-methylpiperazin-1-yl)pyrimidin-4-yl]-N-(4-isopropoxyphenyl)-3,4-dihydroisoquinoline-2(1H)-carboxamide], with 50 nM.

The values are drawn from US8481732B2 (Incyte Corporation, priority 2009, dated 2013).
